The record followed here is ChEMBL document CHEMBL1909046, “DrugMatrix in vitro pharmacology data”.

Sequence of Receptor tyrosine-protein kinase erbB-2 (P04626 whole entry): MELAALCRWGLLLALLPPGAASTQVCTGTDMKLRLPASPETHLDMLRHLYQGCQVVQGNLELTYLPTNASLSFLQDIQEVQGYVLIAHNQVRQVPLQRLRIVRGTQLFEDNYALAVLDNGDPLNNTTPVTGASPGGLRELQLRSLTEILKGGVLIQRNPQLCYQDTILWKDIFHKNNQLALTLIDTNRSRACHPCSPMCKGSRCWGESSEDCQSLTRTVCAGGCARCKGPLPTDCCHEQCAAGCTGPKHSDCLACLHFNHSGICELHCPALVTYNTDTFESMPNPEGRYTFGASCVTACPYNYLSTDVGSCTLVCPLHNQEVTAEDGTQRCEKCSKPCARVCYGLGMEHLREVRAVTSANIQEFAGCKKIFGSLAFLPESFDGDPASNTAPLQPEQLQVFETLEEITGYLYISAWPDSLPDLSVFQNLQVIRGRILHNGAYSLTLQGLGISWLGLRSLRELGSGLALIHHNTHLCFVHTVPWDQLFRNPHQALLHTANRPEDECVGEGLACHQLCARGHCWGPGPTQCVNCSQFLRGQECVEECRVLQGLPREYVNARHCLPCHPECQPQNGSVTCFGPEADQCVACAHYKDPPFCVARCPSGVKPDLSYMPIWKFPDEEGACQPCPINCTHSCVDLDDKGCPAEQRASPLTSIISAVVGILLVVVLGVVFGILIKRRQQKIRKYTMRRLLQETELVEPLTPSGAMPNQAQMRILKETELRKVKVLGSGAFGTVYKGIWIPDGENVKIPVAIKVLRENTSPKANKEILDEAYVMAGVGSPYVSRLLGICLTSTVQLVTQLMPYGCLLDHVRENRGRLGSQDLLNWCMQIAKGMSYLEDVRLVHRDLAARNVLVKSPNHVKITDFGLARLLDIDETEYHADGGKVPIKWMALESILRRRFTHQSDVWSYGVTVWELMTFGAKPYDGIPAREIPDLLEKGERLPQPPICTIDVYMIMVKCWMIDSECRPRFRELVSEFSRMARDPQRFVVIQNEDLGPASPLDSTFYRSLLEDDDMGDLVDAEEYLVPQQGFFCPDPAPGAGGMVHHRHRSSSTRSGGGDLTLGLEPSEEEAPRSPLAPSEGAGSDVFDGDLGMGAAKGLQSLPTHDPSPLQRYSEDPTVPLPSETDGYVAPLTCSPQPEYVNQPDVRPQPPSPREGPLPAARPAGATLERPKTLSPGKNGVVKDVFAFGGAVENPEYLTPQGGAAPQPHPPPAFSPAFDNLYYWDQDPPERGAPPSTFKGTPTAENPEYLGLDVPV
Sequence of Melanocortin receptor 4 (P32245 whole entry): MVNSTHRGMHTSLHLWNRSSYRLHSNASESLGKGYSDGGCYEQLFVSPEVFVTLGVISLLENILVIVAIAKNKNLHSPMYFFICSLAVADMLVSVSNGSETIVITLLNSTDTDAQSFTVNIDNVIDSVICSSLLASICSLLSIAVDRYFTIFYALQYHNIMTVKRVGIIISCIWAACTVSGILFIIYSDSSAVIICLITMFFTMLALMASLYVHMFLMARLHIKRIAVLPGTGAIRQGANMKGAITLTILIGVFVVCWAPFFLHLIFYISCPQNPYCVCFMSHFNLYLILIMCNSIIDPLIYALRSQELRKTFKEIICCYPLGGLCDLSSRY
Sequence of Sodium-dependent dopamine transporter (Q01959 whole entry): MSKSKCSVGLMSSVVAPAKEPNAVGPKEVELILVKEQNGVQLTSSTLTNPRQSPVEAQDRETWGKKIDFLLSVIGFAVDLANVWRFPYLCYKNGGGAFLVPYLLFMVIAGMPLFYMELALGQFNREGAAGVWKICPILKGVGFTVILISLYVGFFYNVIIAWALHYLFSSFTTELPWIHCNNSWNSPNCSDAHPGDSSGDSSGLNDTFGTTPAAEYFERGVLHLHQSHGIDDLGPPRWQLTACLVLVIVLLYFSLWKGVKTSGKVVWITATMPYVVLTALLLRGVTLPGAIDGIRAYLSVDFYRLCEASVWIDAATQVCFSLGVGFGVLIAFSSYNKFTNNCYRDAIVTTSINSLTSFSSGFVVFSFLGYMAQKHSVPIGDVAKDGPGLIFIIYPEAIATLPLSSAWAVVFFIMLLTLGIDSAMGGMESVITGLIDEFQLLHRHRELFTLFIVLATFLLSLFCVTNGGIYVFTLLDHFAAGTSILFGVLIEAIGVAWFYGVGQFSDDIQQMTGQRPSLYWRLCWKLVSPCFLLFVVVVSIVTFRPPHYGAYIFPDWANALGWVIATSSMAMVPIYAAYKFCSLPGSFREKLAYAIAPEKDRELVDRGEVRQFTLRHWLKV

The first test addresses Sodium-dependent dopamine transporter (Homo sapiens, UniProt Q01959). Put plainly: DRUGMATRIX: Dopamine Transporter radioligand binding (ligand: [125I] RTI-55). Particulars: cho-k1; Not Active = under 50% inhibition at 10 µM. The class given is cell membranes, CHO-K1, Membrane.
Take `O=c1n(CCCN2CCN(c3cccc(Cl)c3)CC2)nc2ccccn12` [TRAZODONE]: the IC50 result is reported as “Not Active”.

A further test has as its target Melanocortin receptor 4 (Homo sapiens, UniProt P32245). Note: in other assays of this panel Not Active means under 50% inhibition at 10 µM.
Test: not given
The class given is cell membranes, Membrane. To be noted: hek293.
With `CC(C)OC(=O)C(C)(C)Oc1ccc(C(=O)c2ccc(Cl)cc2)cc1` [FENOFIBRATE], the IC50 entry is “Not Active”.

`OCCN1CCN(CCCN2c3ccccc3Sc3ccc(C(F)(F)F)cc32)CC1` [FLUPHENAZINE]: the concentration for half-maximal inhibition (IC50) result is on record as “Not Active”.

`CCN(CC)CC#CCOC(=O)C(O)(c1ccccc1)C1CCCCC1` (stereo not given) [OXYBUTYNIN]: the half-maximal inhibitory concentration (IC50) entry is recorded as “Not Active”.

As to `O=c1n(CCCN2CCN(c3cccc(Cl)c3)CC2)nc2ccccn12` [TRAZODONE], the half-inhibitory concentration (IC50) entry is given as “Not Active”.

In the next test the target is T1, 3-hydroxy-3-methylglutaryl-coenzyme A reductase (Homo sapiens, UniProt P04035).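 Note: enzyme inhibition assay of HMG-CoA reductase using radiolabeled [14C]HMG-CoA as substrate; in other assays of this panel Not Active means under 50% inhibition at 10 µM.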
T1 sequence (P04035 whole entry): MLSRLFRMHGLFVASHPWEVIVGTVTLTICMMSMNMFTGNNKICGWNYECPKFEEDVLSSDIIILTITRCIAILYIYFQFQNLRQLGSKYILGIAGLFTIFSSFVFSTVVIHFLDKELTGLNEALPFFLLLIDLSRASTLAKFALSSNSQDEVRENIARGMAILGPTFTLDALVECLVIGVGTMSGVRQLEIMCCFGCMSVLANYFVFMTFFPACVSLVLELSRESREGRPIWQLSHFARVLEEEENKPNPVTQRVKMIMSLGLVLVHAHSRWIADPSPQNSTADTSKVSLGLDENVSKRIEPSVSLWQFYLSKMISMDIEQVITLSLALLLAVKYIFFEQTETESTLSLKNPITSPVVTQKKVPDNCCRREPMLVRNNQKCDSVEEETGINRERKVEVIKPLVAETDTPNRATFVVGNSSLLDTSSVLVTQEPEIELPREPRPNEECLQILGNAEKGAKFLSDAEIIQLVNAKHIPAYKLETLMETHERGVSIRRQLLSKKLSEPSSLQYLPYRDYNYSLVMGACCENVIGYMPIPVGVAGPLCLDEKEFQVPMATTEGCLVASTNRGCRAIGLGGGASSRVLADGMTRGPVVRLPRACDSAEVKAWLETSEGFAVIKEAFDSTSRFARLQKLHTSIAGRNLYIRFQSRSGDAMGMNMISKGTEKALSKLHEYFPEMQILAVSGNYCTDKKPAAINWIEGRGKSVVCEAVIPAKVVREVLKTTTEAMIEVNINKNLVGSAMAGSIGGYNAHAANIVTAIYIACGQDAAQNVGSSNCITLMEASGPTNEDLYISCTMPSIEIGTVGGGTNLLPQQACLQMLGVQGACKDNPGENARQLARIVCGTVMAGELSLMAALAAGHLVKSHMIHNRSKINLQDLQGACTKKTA
Test: not given
Details: not given
More on the design: species or system Escherichia coli.
For the compound `CC(C)OC(=O)C(C)(C)Oc1ccc(C(=O)c2ccc(Cl)cc2)cc1` [FENOFIBRATE], the IC50 result was “Not Active”.

With `OCCN1CCN(CCCN2c3ccccc3Sc3ccc(C(F)(F)F)cc32)CC1` [FLUPHENAZINE], the concentration for half-maximal inhibition (IC50) result was “Not Active”.

Take `CCN(CC)CC#CCOC(=O)C(O)(c1ccccc1)C1CCCCC1` (stereo not given) [OXYBUTYNIN]: the IC50 result is reported as “Not Active”.

Turning to `O=c1n(CCCN2CCN(c3cccc(Cl)c3)CC2)nc2ccccn12` [TRAZODONE], the half-maximal inhibitory concentration (IC50) entry was “Not Active”.

The next test addresses T2, Endothelin-1 receptor (Homo sapiens, UniProt P25101).
T2 sequence (P25101 whole entry): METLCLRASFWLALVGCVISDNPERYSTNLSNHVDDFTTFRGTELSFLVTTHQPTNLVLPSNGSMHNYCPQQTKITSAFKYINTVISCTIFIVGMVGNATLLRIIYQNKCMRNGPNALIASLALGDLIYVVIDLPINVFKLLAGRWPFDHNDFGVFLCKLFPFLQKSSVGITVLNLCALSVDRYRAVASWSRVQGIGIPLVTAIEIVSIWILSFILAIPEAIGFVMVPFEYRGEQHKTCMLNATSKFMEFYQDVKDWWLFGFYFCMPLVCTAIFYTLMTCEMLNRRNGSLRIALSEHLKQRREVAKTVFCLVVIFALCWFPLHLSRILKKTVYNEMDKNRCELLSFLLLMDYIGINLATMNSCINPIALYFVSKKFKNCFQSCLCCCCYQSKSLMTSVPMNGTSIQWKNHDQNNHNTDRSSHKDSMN
Test: not given
The class given is cell membranes, CHO-K1, Membrane. To be noted: cho-k1.
On to `CC(C)OC(=O)C(C)(C)Oc1ccc(C(=O)c2ccc(Cl)cc2)cc1` [FENOFIBRATE], for which the IC50 result is on record as “Not Active”.

On to `OCCN1CCN(CCCN2c3ccccc3Sc3ccc(C(F)(F)F)cc32)CC1` [FLUPHENAZINE], for which the concentration for half-maximal inhibition (IC50) result is reported as “Not Active”.

Regarding `CCN(CC)CC#CCOC(=O)C(O)(c1ccccc1)C1CCCCC1` (stereo not given) [OXYBUTYNIN], the IC50 result is recorded as “Not Active”.

In the case of `O=c1n(CCCN2CCN(c3cccc(Cl)c3)CC2)nc2ccccn12` [TRAZODONE], the IC50 result is on record as “Not Active”.

The target in another test is T3, C-C chemokine receptor type 4 (Homo sapiens, UniProt P51679). Note: in other assays of this panel Not Active means under 50% inhibition at 10 µM.
T3 sequence (P51679 whole entry): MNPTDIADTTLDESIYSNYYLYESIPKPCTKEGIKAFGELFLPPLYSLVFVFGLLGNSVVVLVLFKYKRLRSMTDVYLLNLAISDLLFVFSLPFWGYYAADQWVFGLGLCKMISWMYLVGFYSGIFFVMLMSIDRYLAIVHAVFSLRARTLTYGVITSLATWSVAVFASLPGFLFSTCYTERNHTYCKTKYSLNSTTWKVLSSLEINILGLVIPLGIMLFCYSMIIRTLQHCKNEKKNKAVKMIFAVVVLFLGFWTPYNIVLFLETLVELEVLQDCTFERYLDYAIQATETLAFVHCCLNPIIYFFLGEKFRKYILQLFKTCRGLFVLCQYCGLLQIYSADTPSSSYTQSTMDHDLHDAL
Test: not given
The class given is cell membranes, Membrane. To be noted: chem-1.
As for `CC(C)OC(=O)C(C)(C)Oc1ccc(C(=O)c2ccc(Cl)cc2)cc1` [FENOFIBRATE], the IC50 result is “Not Active”.

Regarding `OCCN1CCN(CCCN2c3ccccc3Sc3ccc(C(F)(F)F)cc32)CC1` [FLUPHENAZINE], the IC50 entry was “Not Active”.

On to `CCN(CC)CC#CCOC(=O)C(O)(c1ccccc1)C1CCCCC1` (stereo not given) [OXYBUTYNIN], for which the 50% inhibitory concentration (IC50) entry was “Not Active”.

For `O=c1n(CCCN2CCN(c3cccc(Cl)c3)CC2)nc2ccccn12` [TRAZODONE], the 50% inhibitory concentration (IC50) entry is reported as “Not Active”.

Another test addresses T4, Caspase-1 (Homo sapiens, UniProt P29466).
T4 sequence (P29466 whole entry): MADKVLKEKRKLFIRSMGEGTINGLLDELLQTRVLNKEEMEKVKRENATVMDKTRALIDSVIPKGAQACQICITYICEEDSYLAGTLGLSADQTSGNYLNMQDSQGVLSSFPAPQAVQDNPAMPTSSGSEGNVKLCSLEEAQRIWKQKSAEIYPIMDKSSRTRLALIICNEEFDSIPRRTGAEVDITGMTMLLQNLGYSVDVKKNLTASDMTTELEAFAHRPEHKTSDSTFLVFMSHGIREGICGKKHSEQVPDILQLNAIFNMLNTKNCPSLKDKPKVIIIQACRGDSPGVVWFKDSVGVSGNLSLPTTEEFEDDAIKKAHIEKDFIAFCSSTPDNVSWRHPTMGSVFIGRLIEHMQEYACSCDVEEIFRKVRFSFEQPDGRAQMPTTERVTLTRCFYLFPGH
Test: not given
More on the design: species or system Escherichia coli.
Details: not given
`CC(C)OC(=O)C(C)(C)Oc1ccc(C(=O)c2ccc(Cl)cc2)cc1` [FENOFIBRATE]: the IC50 entry is on record as “Not Active”.

Consider `OCCN1CCN(CCCN2c3ccccc3Sc3ccc(C(F)(F)F)cc32)CC1` [FLUPHENAZINE], for which the IC50 entry is recorded as “Not Active”.

In the case of `CCN(CC)CC#CCOC(=O)C(O)(c1ccccc1)C1CCCCC1` (stereo not given) [OXYBUTYNIN], the half-maximal inhibitory concentration (IC50) entry is given as “Not Active”.

As for `O=c1n(CCCN2CCN(c3cccc(Cl)c3)CC2)nc2ccccn12` [TRAZODONE], the half-maximal inhibitory concentration (IC50) entry is on record as “Not Active”.

Another test has as its target Receptor tyrosine-protein kinase erbB-2 (Homo sapiens, UniProt P04626). Put plainly: biochemical. The class given is cell-based, Insect cells. To be noted: insect cells.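 Note: inhibition of HER2 kinase enzyme activity, measured with Poly(Glu:Tyr) as the phosphorylation substrate; in other assays of this panel Not Active means under 50% inhibition at 10 µM.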
Consider `CC(C)OC(=O)C(C)(C)Oc1ccc(C(=O)c2ccc(Cl)cc2)cc1` [FENOFIBRATE], for which the IC50 result is “Not Active”.

With `CCN(CC)CC#CCOC(=O)C(O)(c1ccccc1)C1CCCCC1` (stereo not given) [OXYBUTYNIN], the 50% inhibitory concentration (IC50) result is on record as “Not Active”.

For `O=c1n(CCCN2CCN(c3cccc(Cl)c3)CC2)nc2ccccn12` [TRAZODONE], the half-inhibitory concentration (IC50) result was “Not Active”.

The same test, now with this note: read-out: IC50.
With `OCCN1CCN(CCCN2c3ccccc3Sc3ccc(C(F)(F)F)cc32)CC1` [FLUPHENAZINE], the IC50 amounted to 19.6 µM.

What is called IC50 is the concentration at which inhibition is half-maximal.
